How the values were obtained:
[1] = tested on: HEPM cells; assay: Stimulation of anchorage independent growth assay (soft agar); format: cell-based, human; details: 50 pM TGF-β1 at plating, colonies enumerated on day 13
Protocol: FIGS. 3(A) and 3(B) Bioactivity of TGF-β on HEPM cells: stimulation of growth in soft agar. Cells were treated with 50 pM TGF-β1, at the time of plating and colony formation was enumerated on day 13.
A 0.5 ml base layer of 0.5% agar (Agar Noble; Difco Laboratories, Detroit, Mich.) in growth medium was added to 24-well Costar tissue culture plates 0.5 ml 0.3% agar in growth medium containing 1×10^4 HEPM cells and various concentrations of TGF-β or other test samples was overlaid on the base layer of agar in triplicate wells. The plates were incubated at 37° C. in a humidifed atmosphere of 5% CO2 in air for up to 14 days without refeeding. Colonies were enumerated unfixed and unstained. The number of colonies with more than 6 cells were scored.

[2] = tested on: HEPM cells; assay: Growth stimulation in monolayer monitored by cell counting; format: cell-based, human; details: 50 pM TGF-β1, 96 hours post-treatment
Protocol: FIG. 2 Bioactivity of TGF-β on HEPM cells: cell proliferation. Cell counts were taken at 24 hour intervals until 120 hours post treatment. The data is presented as the number of cells per well vs incubation time (hours). By 96 hours, cultures treated with 50 pM TGF-β1, ( ) had reached a cell density twice that of untreated cultures ( ).
Alternatively, growth stimulation in monolayer was monitored by cell counting. Cell monolayers were washed with PBS and then treated with 100 μl 0.25% trypsin solution at 37° C. until cells became detached from the culture surface. Fetal bovine serum (100 μl) was then added to each well to inhibit further action by trypsin. The resulting cell suspension was counted by the standard hemacytometer method. The viability of cells, greater than 98% in these examples, was determined by trypan blue dye-exclusion.

TGF-β1: Transforming growth factor-Beta type 1; two identical disulfide linked subunits having molecular weights of 13,000; recombinant material used
mean colony number in soft agar [1]: 8±1
cell density compared with untreated cultures [2]: twice

Reference: patent publication US5340925A, “Normal human growth regulatory receptor for TGF-β” (Oncogen, priority 1992, dated 1994)
